Source: ChEMBL document CHEMBL1201862, “PubChem BioAssay data set” (2004)
Active and inactive are the calls of the source.

Tests used:
Aurora kinase B = Aurora kinase B (Homo sapiens, UniProt Q96GD4); format: functional
[1] = nonselective inhibitors of cellular cAMP signaling, dose response, counter-screen for MC4R biased antagonist project, cell-based, TR-FRET cAMP detection (AID 602305); format: functional;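 further: U2OS cells stimulated with forskolin near its EC80 as the cAMP inducer; potency is for inhibition of forskolin-stimulated cAMP signaling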
Melanocortin receptor 4 = Melanocortin receptor 4 (Homo sapiens, UniProt P32245); experiment: MC4R antagonist potency on cAMP, dose response, cell-based, TR-FRET, biased antagonists (AID 602298); format: functional;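 further: antagonist potency against agonist-stimulated cAMP production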
Streptococcus = experiment: Group A Streptococcus viability loss, dose response, counter-screen for streptokinase expression inhibitor project, luminescence, BacTiterGlo (AID 1915); format: functional, organism-based;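 further: potency for reduction of bacterial viability or growth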
[2] = biological target: 26S proteasome non-ATPase regulatory subunit 14 (Homo sapiens, UniProt O00487); experiment: inhibition of proteasome subunit RPN11 – biochemical, fluorescence polarization, uHTS hits, confirmation (AID 602368); format: functional
[3] = test system: Streptococcus sp. 'group A'; experiment: growth inhibition of control SK(-) GAS strain, dose response, counter-screen for streptokinase expression inhibitor project, luminescence, kanamycin, BacTiterGlo, confirmation (AID 1900); format: functional, organism-based
Prothrombin = Prothrombin (Bos taurus, UniProt P00735); experiment: thrombin inhibition, dose response, biochemical, fluorescence polarization, uHTS hits (AID 602369); format: functional
[4] = biological target: 72 kDa type IV collagenase (Homo sapiens, UniProt P08253); experiment: Dose Response validation of uHTS RPN11 inhibitor hits using a MMP-2 Fluorescence assay.; format: functional
Streptokinase A = biological target: T1, Streptokinase A (Streptococcus pyogenes serotype M1, UniProt P10520); experiment: S. pyogenes streptokinase expression inhibitors, potency, dose response, plasminogen activation absorbance, OD405 (AID 1914); format: functional, Streptococcus pyogenes M1 GAS;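 further: secreted streptokinase activity via plasminogen activation per viability signal from cell pellet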
T1 sequence (P10520 whole entry): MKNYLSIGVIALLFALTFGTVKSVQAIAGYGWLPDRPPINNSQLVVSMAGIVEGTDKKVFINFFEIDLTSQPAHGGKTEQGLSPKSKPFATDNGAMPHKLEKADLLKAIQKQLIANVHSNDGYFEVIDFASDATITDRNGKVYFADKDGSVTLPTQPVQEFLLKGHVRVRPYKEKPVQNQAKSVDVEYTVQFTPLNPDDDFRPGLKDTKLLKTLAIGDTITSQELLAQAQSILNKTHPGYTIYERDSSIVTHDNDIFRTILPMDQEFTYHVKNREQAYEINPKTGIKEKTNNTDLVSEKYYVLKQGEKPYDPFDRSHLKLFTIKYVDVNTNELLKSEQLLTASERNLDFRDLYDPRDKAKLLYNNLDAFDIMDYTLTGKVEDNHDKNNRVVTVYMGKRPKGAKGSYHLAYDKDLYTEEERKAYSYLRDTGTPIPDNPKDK

[5] = biological target: T2, Neuropeptides B/W receptor type 1 (Homo sapiens, UniProt P48145); experiment: GPR7 antagonist potency, late-stage follow-up, cell-based, fluorescence, dose response, set 6 (AID 588583); format: functional
T2 sequence (P48145 whole entry): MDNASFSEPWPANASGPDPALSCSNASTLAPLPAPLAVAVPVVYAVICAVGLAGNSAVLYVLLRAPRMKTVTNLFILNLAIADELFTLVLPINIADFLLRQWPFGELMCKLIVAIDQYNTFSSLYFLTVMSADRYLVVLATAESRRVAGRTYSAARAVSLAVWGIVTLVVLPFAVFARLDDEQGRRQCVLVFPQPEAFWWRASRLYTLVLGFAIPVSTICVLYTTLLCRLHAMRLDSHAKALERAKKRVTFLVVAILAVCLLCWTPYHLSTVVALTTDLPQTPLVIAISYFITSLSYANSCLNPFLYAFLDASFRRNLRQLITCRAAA

[6] = biological target: Melanin-concentrating hormone receptor 1 (Homo sapiens, UniProt Q99705); experiment: Late-stage fluorescence-based counterscreen for antagonists of the G-protein coupled receptor 7 (GPR7): cell-based dose response assay to identify antagonists of the melanin-concentrating hormone receptor 1 (MCHR1) Set 6.; format: functional
Sequence of Melanin-concentrating hormone receptor 1 (Q99705 whole entry): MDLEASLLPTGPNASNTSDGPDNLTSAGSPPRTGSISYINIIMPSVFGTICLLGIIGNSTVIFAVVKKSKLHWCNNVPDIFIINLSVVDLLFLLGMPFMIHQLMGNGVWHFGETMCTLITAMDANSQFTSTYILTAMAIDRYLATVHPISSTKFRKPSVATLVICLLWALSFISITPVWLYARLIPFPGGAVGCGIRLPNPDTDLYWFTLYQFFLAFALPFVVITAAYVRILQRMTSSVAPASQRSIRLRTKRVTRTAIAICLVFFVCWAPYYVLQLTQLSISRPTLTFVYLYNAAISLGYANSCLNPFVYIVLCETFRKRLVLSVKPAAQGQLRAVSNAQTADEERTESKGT

Sequence of 26S proteasome non-ATPase regulatory subunit 14 (O00487 whole entry): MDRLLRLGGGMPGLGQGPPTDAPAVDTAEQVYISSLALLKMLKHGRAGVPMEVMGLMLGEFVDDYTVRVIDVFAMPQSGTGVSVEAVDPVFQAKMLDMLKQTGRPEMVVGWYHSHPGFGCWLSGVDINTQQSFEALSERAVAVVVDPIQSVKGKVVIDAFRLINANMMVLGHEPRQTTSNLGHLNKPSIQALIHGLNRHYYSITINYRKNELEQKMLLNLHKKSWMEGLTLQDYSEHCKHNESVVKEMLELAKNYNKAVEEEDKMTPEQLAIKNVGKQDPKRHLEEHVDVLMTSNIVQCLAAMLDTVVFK
Sequence of Melanocortin receptor 4 (P32245 whole entry): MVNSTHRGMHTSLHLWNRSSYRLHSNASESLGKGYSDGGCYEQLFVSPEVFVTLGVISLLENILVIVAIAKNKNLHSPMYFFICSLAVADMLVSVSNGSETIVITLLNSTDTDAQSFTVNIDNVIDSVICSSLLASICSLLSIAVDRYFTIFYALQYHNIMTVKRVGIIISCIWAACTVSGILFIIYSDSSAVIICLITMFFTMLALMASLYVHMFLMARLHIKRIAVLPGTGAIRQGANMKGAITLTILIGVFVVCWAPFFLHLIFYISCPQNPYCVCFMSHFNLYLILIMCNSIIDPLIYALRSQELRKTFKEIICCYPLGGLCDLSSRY
Sequence of 72 kDa type IV collagenase (P08253 whole entry): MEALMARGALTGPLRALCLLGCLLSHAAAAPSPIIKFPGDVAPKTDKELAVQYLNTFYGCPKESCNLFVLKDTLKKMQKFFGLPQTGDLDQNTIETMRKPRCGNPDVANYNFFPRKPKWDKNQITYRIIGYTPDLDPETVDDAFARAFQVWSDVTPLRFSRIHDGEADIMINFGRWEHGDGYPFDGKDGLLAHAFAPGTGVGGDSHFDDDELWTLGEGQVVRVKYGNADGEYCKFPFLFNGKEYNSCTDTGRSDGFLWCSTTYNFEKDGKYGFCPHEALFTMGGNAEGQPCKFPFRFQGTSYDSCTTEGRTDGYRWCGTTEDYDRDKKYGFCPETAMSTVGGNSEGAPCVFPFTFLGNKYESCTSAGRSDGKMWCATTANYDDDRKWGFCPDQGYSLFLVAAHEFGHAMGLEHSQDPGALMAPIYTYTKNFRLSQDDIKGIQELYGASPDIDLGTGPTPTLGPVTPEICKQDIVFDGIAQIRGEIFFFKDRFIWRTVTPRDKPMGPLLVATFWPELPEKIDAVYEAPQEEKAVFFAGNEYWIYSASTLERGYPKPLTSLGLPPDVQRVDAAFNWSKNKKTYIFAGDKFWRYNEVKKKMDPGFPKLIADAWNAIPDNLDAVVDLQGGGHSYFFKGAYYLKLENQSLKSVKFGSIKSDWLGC
Sequence of Aurora kinase B (Q96GD4 whole entry): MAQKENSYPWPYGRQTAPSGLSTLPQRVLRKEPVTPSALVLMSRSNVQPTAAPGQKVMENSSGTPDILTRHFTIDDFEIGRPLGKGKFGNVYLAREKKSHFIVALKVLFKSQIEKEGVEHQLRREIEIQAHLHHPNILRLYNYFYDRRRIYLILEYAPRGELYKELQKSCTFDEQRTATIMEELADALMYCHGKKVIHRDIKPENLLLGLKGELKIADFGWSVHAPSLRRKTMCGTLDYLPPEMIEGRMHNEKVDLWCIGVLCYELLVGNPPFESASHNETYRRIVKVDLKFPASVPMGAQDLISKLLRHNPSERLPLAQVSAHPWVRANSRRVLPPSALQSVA

## Cc1cccc(Nc2nccc(Nc3ccccc3C(=O)O)n2)c1
Aurora kinase B
  Ki: 0.00126 µM (active)

## CCOC(=O)c1cnc2ccc(OCC)cc2c1NCc1ccccc1
[1]
  IC50: > 64.6 µM (inactive)
Melanocortin receptor 4
  IC50: > 64.6 µM (inactive)

## O=C1NC(=S)N(C2CCCCC2)C(=O)/C1=C/NNC(=O)c1ccccc1
Streptococcus
  EC50: 8.22 µM (active)
[2]
  IC50: 40.3 µM (active)
[3]
  EC50: 0.519 µM (active)
Prothrombin
  IC50: 36.1 µM (active)
[4]
  IC50: > 100 µM (inactive)
Streptokinase A
  EC50: > 150 µM (not active)

## N#CC(c1ccccn1)c1c(Br)cnn(Cc2cccc3ccccc23)c1=O (stereo unspecified)
[5]
  IC50: 0.8 µM (active)
[6]
  IC50: 0.8 µM (active)
